Results: patent US9079854B2 (priority 2007, dated 2015)
Like-named read-outs stand apart in the source and are kept apart here.

Tests used:
[1] = target: T1, human CB1 (hCB1) receptor (Homo sapiens, UniProt P21554); experiment: CB1 binding assay, competitive binding of [3H]CP 55940; settings: for % Inhibition of Control Specific Binding / % of Control Specific Binding 1st / % of Control Specific Binding 2nd / % of Control Specific Binding Mean: CB1, Test Concentration 1.0E−05 (MD); for % of Control Specific Binding 1st: 1st determination; for % of Control Specific Binding 2nd: 2nd determination; for inhibition at 10 µM / inhibition at 1 µM: specific binding of [3H]-CP55940; for inhibition at 1 µM: CHO membranes
T1 construct: expressed in transfected cells; host or cells: CHO (Chinese hamster ovary) cells, membranes
Protocol: Cell membrane homogenates (25 μg protein) are incubated for 120 min at 37° C. with 0.5 nM [^3H]CP 55940 (the reference standard [Rinaldi-Carmona, 1996 #1320]) in the absence or presence of the test compound in a buffer containing 50 mM Tris HCl (pH 7.4), 5 mM MgCl2, 2.5 mM EDTA, and 0.3% bovine serum albumin (BSA). […]
(§1) […] [^3H]-CP55940 at a concentration of 0.5 nM and [^3H]-WIN55212 at a concentration of 0.8 nM were used as radioligands for hCB1 and hCB2 assays, respectively. The results are expressed as a percent inhibition of control specific binding. Compounds which displaced the radioligand by more than 50% for either hCB1 or hCB2 receptors were arbitrary chosen for functional activity determination.

[2] = target: T2, human CB2 (hCB2) receptor (Homo sapiens, UniProt P34972); experiment: CB2 binding assay, competitive binding of [3H]WIN 55212-2; settings: for % Inhibition of Control Specific Binding / % of Control Specific Binding 1st / % of Control Specific Binding 2nd / % of Control Specific Binding Mean: CB2, Test Concentration 1.0E−05 (MD); for % of Control Specific Binding 1st: 1st determination; for % of Control Specific Binding 2nd: 2nd determination; for inhibition at 10 µM / inhibition at 1 µM: specific binding of [3H]-WIN55212-2; for inhibition at 1 µM: CHO membranes
T2 construct: expressed in transfected cells; host or cells: CHO (Chinese hamster ovary) cells, membranes
Protocol: Cell membrane homogenates (15 μg protein) are incubated for 120 min at 37° C. with 0.8 nM [^3H]WIN 55212-2 (the reference standard [Munro, 1993 #1321]) in the absence or presence of the test compound in a buffer containing 50 mM HEPES/Tris HCL (pH 7.4), 5 mM MgCl2, 2.5 mM EGTA, and 0.1% BSA. Nonspecific binding is determined in the presence of 10 μM WIN 55212-2. After being incubated, the samples are filtered rapidly under vacuum through glass fiber filters (GF/B; Packard) presoaked with 0.3% PEI and rinsed several times with ice-cold buffer containing 50 mM Tris HCl (pH 7.4) and 0.5% BSA using a 96-sample cell harvester (Unifilter; Packard). The filters are dried then counted for radioactivity in a scintillation counter (Topcount; Packard) using a scintillation cocktail (Microscint 0; Packard). The results are expressed as a percentage of the inhibition of the control radioligand-specific binding. The reference standard compounds are tested in each experiment at several concentrations to obtain a competition curve from which its IC50 is calculated.
as §1

hCB2 receptor = target: T3, hCB2 receptor (Homo sapiens, UniProt P34972); experiment: CB2 functional assay, [35S]GTP-γ-S binding; assay type: biochemical
T3 construct: purchased ES-111-MG; host or cells: CHO membrane extracts
Protocol: A dose response curve was generated at eight concentrations in duplicate on CB1 and CB2 in light of reference agonists.
Membranes (CB1, ES-110-MG or CB2, ES-111-MG) are mixed with GDP (volume:volume) and incubated for at least […] on ice. In parallel, […] are mixed with the beads (volume:volume) just before starting the reaction. The following reagents are successively added in the wells of an Optiplate: 50 μl of ligand, 20 μl of the membranes:GDP mix, 10 μl of assay buffer for agonist testing and 20 μl of the […]: beads mix. The plates are covered with a topseal, shaken on an orbital shaker for 2 min, and then incubated between 30 to 60 min at room temperature. Then the plates are centrifuged for 10 min at 2000 rpm, incubated at room temperature between 1 to 4 hours and counted for 1 min with a PerkinElmer TopCount reader.
Functional activity for acyl hydrazone was evaluated using [^35S]GTP-γ-S assay in CHO membrane extracts expressing recombinant hCB1 receptor or hCB2 receptor. The assay relies on the binding of [^35S]GTP-γ-S, a radiolabeled nonhydrolyzable GTP analogue, to the G protein upon binding of an agonist of the G-protein-coupled receptor. In this system, agonists stimulate [^35S]GTP-γ-S binding whereas neutral antagonist have no effect and inverse agonists decrease [^35S]GTP-γ-S basal binding.
CB1 and CB2 assay data are presented as the mean of two determinations. […] For replicate determinations, the maximum variability tolerated in the test was of ±20% around the average of the replicates.

[3] = at 10 μM, read-out: % inhibition hCB2 receptor
[4] = read-out: % inhibition hCB2 receptor, at 10 μM
[5] = read-out: % inhibition hCB2 receptor, at 1 μM

T2 sequence (P34972 whole entry): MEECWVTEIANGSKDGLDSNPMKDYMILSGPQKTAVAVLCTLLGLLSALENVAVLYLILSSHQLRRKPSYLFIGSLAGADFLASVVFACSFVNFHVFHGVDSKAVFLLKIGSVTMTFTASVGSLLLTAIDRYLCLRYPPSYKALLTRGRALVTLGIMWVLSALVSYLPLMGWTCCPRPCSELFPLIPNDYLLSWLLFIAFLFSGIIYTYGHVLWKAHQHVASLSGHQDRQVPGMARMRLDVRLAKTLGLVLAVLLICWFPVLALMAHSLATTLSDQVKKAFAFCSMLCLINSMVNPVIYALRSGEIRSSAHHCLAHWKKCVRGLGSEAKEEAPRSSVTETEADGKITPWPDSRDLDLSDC
T3 sequence (P34972 whole entry): as above
T1 sequence (P21554 whole entry): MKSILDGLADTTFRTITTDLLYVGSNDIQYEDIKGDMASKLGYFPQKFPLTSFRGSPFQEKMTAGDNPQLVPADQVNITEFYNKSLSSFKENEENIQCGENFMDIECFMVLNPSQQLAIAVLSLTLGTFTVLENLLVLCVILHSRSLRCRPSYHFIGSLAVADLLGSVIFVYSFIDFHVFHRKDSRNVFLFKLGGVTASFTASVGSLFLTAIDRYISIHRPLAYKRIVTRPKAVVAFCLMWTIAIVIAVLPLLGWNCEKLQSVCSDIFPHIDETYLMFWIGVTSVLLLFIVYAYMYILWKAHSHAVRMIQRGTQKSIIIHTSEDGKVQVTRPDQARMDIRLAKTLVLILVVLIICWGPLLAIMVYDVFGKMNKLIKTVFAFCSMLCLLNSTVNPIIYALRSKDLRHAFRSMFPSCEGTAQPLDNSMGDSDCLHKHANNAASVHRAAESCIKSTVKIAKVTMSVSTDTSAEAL

| SMILES | % of Control Specific Binding 1st [1] [%] | % of Control Specific Binding 2nd [1] [%] | % of Control Specific Binding Mean [1] [%] | inhibition at 10 µM [1] [%] | % Inhibition of Control Specific Binding [2] [%] | % of Control Specific Binding 1st [2] [%] | % of Control Specific Binding 2nd [2] [%] | % of Control Specific Binding Mean [2] [%] | inhibition at 1 µM [1] [%] | inhibition at 1 µM [2, 5] [%] | other results |
| --- | --- | --- | --- | --- | --- | --- | --- | --- | --- | --- | --- |
| O=C1/C(=N\NC(=S)Nc2ccccc2)c2ccccc2N1CCC1CCCCC1 [Example 1, Phenyl thiocarbamoyl[1-(2-cyclohexyl-ethyl)-2-oxo-1,2-dihydro-indol-3-ylidene]-hydrazide] | 68.6 | 59.6 | 64.1 | < 40 | 15 | 83.3 | 87.6 | 85.4 | – | – | % Inhibition of Control Specific Binding [1]: 36%; inhibition at 10 µM [2, 3]: < 40% |
| CCCCCCN1C(=O)/C(=N\NC(=S)Nc2ccccc2)c2ccccc21 [Example 2, Phenyl thiocarbamoyl[1-n-hexyl-2-oxo-1,2-dihydro-indol-3-ylidene]-hydrazide] | 45.8 | 56.1 | 51 | 49 ± 5.2 | 38 | 59.8 | 64.7 | 62.3 | – | – | inhibition at 10 µM [2, 3]: 37.7 ± 2.5% |
| O=C(N/N=C1\C(=O)N(CCC2CCCCC2)c2ccccc21)Nc1ccccc1 [Example 3] | 54.1 | 78.5 | 66.3 | < 40 | −3 | 98.6 | 107.1 | 102.8 | – | – | % Inhibition of Control Specific Binding [1]: 34%; inhibition at 10 µM [2, 4]: < 40% |
| CCCCCCN1C(=O)/C(=N\NC(=O)Nc2ccccc2)c2ccccc21 [Example 4, Phenyl carbamoyl[1-n-hexyl-2-oxo-1,2-dihydro-indol-3-ylidene]-hydrazide] | 64.3 | 61.4 | 62.9 | < 40 | −8 | 105.7 | 109.7 | 107.7 | – | – | % Inhibition of Control Specific Binding [1]: 37%; inhibition at 10 µM [2, 4]: < 40% |
| O=C1/C(=N\NS(=O)(=O)c2ccccc2)c2ccccc2N1CCC1CCCCC1 [Example 8] | 77.2 | 90 | 83.6 | < 40 | 9 | 89.2 | 93.3 | 91.2 | – | – | % Inhibition of Control Specific Binding [1]: 16%; inhibition at 10 µM [2, 3]: < 40% |
| CCCCCCN1C(=O)/C(=N\NS(=O)(=O)c2ccccc2)c2ccccc21 [Example 9, Phenyl sulfonyl[1-n-hexyl-2-oxo-1,2-dihydro-indol-3-ylidene]-hydrazide] | 87.7 | 96.1 | 91.9 | < 40 | −14 | 126.5 | 100.6 | 113.5 | – | – | % Inhibition of Control Specific Binding [1]: 8%; inhibition at 10 µM [2, 3]: < 40% |
| CCCCCCN1C(=O)/C(=N\NC(=O)CCCCC)c2ccccc21 [Example 12, N′-[(3Z)-1-hexyl-2-oxo-1,2-dihydro-3H-indol-3-ylidene]hexanohydrazide] | – | – | – | – | – | – | – | – | 45.2 ± 9.5 | 36.6 ± 8.8 | – |
| CCCCCCN1C(=O)/C(=N\NC(=O)c2ccc(Cl)cc2)c2ccccc21 [Example 13, 4-chloro-N′-[(3Z)-1-hexyl-2-oxo-1,2-dihydro-3H-indol-3-ylidene]benzohydrazide] | – | – | – | – | – | – | – | – | 46.6 ± 4.3 | 32.7 ± 5.3 | – |
| CCCCCCN1C(=O)/C(=N\NC(=O)c2ccc3ccccc3c2)c2ccccc21 [Example 16, N′-[(3Z)-1-hexyl-2-oxo-1,2-dihydro-3H-indol-3-ylidene]-2-naphthohydrazide] | – | – | – | – | – | – | – | – | < 30 | < 30 | – |
| CCCCCCN1C(=O)/C(=N\NC(=O)c2cc3ccccc3s2)c2ccccc21 [Example 18, N′-[(3Z)-1-hexyl-2-oxo-1,2-dihydro-3H-indol-3-ylidene]-1-benzothiophene-2-carbohydrazide] | – | – | – | – | – | – | – | – | < 30 | < 30 | – |
| CCCCCCCCCCCCN1C(=O)/C(=N\NC(=O)c2ccccc2)c2ccccc21 [Example 24, N′-[(3Z)-1-(1-dodecyl)-2-oxo-1,2-dihydro-3H-indol-3-ylidene]benzohydrazide] | – | – | – | – | – | – | – | – | 23.8 ± 4.5 | 24.3 ± 4.1 | – |
| O=C(N/N=C1\C(=O)N(CCN2C(=O)c3ccccc3C2=O)c2ccccc21)c1ccccc1 [Example 27, N′-{[3Z]-1-[2-(1,3-dioxo-1,3-dihydro-2H-isoindol-2-yl)ethyl]-2-oxo-1,2-dihydro-3H-indol-3-ylidene}benzohydrazide] | – | – | – | – | – | – | – | – | 3 ± 4.1 | – | inhibition at 1 µM ([2]; at 1 μM, read-out: % inhibition hCB2 receptor): 3 ± 3.2% |
| CCCCCCN1C(=O)/C(=N\NC(=O)c2ccccc2)c2cc(C)ccc21 [Example 31, N′-[(3Z)-1-hexyl-5-methyl-2-oxo-1,2-dihydro-3H-indol-3-ylidene]benzohydrazide] | – | – | – | – | – | – | – | – | 22 ± 0.9 | 1 ± 2.7 | – |
| CCCCCCN1C(=O)/C(=N\NC(=O)c2ccccc2)c2cc(OC)ccc21 [Example 32, N′-[(3Z)-1-hexyl-5-methoxy-2-oxo-1,2-dihydro-3H-indol-3-ylidene]benzohydrazide] | – | – | – | – | – | – | – | – | 26 ± 3.1 | 17 ± 1.2 | – |
| CCCCCCN1C(=O)/C(=N\NC(=O)c2ccccc2)c2cc(Cl)ccc21 [Example 34, N′-[(3Z)-5-chloro-1-hexyl-2-oxo-1,2-dihydro-3H-indol-3-ylidene]benzohydrazide] | – | – | – | – | – | – | – | – | 9 ± 1.4 | 6 ± 1.4 | – |
| CCCCCN1C(=O)/C(=N\NC(=O)c2ccccc2)c2cc(I)ccc21 [Example 35, N′-[(3Z)-5-iodo-2-oxo-1-pentyl-1,2-dihydro-3H-indol-3-ylidene]benzohydrazide] | – | – | – | – | – | – | – | – | 25 ± 0.2 | 10 ± 0.2 | – |
| CCCCCCN1C(=O)/C(=N\NC(=O)c2ccccc2)c2ccc(OC)cc21 [Example 36, N′-[(3Z)-1-hexyl-6-methoxy-2-oxo-1,2-dihydro-3H-indol-3-ylidene]benzohydrazide] | – | – | – | – | – | – | – | – | – | – | EC50 (hCB2 receptor): 85 nM; Emax (hCB2 receptor; Table 10, repeated experiment): -95% |
| COc1ccc2c(c1)N(Cc1ccccc1)C(=O)/C2=N\NC(=O)c1ccccc1 [Example 38, N′-[(3Z)-1-benzyl-6-methoxy-2-oxo-1,2-dihydro-3H-indol-3-ylidene]benzohydrazide] | – | – | – | – | – | – | – | – | – | – | Emax (hCB2 receptor; Table 10, repeated experiment): -96%; EC50 (hCB2 receptor; Table 10, repeated experiment, read-out: [35S]GTP-γ-S hCB2 EC50): 102 nM |
